# Reference: US20230063100A1, “VETERINARY ANTI-PROLACTIN COMPOSITION FOR RUMINANTS USED BY INTRAMAMMARY ADMINISTRATION” (Ceva Santé Animale, priority 2020, published 2023)
# Legend:
# [1] = system: Prim'holstein lactating cows; assay: Cabergoline effect by intramammary (IMM) route on milk production, milking continuation context (Example 1); assay type: in vivo; details: IMM 1.34 mg/quarter in all 4 quarters (5.4 mg/cow, ~7.5 μg/kg) after evening milking D4; n=5; printed as minus 6 L
# Experimental: The cabergoline composition is a solution comprising cabergoline with dimethyl sulfoxide and medium-chain triglycerides, as excipients.
# 5 Prim'holstein lactating cows were included in the study, with the following characteristics: • Multiparous: parity 2 to 4 • Daily milk yield (L): 17.4+/−2.8 • Days in milk (d): 251+/−51 • Body weight (kg): 686+/−29
# Cabergoline was administered as an oily solution as described above, with an intramammary cannula inserted into the teat canal and fitted to the tip of a syringe containing the solution. A volume of 10 mL was directly deposited into the udder cistern of each quarter.
# Cows were milked twice a day, morning and evening, at around 07 am and 05 pm respectively.
# Milk production (morning milking) was measured during the days before (baseline) and after treatment.
# The 5 cows were treated with a dose 1.34 mg/quarter in all 4 quarters (total dose 5.4 mg/cow, corresponding to ˜7.5 μg/kg when expressed according to kg body weight, after evening milking (D4), i.e. 15-20 minutes after the end of milking.
# [2] = Blood calcium concentration after IMM cabergoline at dry-off (Example 2.3); assay type: in vivo, cow
# Excerpt: (§1) 10 lactating cows (9 Prim'holstein and 1 Brown Swiss) were included in this study.
# No feed restriction was put in place within the 3 weeks preceding the D0 dry-off and after. Animal had free access to water and hay throughout the study. Each cow was given 7 kg/day of an antibiotic free concentrate feed for lactating cow until D0 dry off. After dry-off each cow was given 7 kg/day of an antibiotic free concentrate for growing cattle.
# [3] = Pharmacokinetics of cabergoline in plasma after IM administration, 5.6 mg/cow (comparative study); assay type: in vivo; details: bovine, n=6, plasma
# [4] = Blood calcium concentration after IM cabergoline 5.6 mg/cow (previous studies); assay type: in vivo; details: versus negative control group
# Experimental: Said studies were conducted in comparison versus a negative control group, and blood calcium decrease was monitored and well identified: A calcium decrease was observed as soon as 2 to 3 hours post-treatment, maximal between 6 and 12 hours and return to normal after 24 hours.
# It is important to note that, in the study of example 2, the benefit regarding a less decrease of blood calcium concentration was obtained, despite a less quantity of calcium supplied by food, when compared to the IM studies 1 and 2. In these last 2 IM studies, 150 g of calcium/day/cow was provided through a total or partial mixed ration, whereas in the IMM study of example 2 only 50 g of calcium was provided via the concentrate (7 kg/day/cow at 0.7% of Ca) and a remaining part via the hay given ad libidum. Although the exact quantity of Ca provided by the hay was unknown, it was surely less than in the 2 IM studies, because, • i) the content of calcium in the hay is generally lower than concentrates, usually around 0.3% • ii) the actual hay dry matter intake could be estimated around 13 to 15 kg for the cows included in example 2
# dairy cow [5] = assay: Delta ITP at dry-off, IM study with the same total dose (comparative); assay type: in vivo; details: same total dose by IM route, n=130
# dairy cow [6] = assay: Field-controlled study (n=106), IM route, decrease of milk production; assay type: in vivo
# Experimental: Extrapolation of the dose-effect relationship, with an IM dose of 7.5 μg/kg gave a predicted effect on milk production reduction of −43%.
# dairy cow [7] = assay: Previous IM dose-effect study of cabergoline on milk production reduction (comparative); assay type: in vivo; details: extrapolation of the dose-effect relationship to an IM dose of 7.5 μg/kg
# Excerpt: The obtained results are the following:
# [8] = Pharmacokinetics of cabergoline in plasma after IMM administration (Example 2.2); assay type: in vivo, cow; details: female, Prim'holstein and Brown Swiss, bovine, 5.4 mg/udder, n=5, plasma
# Excerpt: as §1
# dairy cow [9] = assay: Inter-teat perimeter (ITP, udder engorgement) at dry-off, IMM study (Example 2); assay type: in vivo
# Experimental: 10 lactating cows (9 Prim'holstein and 1 Brown Swiss) were included in this study. […] Animal had free access to water and hay throughout the study. Each cow was given 7 kg/day of an antibiotic free concentrate feed for lactating cow until D0 dry off. After dry-off each cow was given 7 kg/day of an antibiotic free concentrate for growing cattle. The composition of concentrate is given hereafter: At D0 dry-off, an abrupt milking cessation was performed. The inter-teat perimeter (ITP) was considered as a proxy of udder volume and engorgement, and was measured before treatment udder, both before and after milking, and then evenly after treatment until 9 days post-treatment.
structure (smiles),measurement,setting,value
"C=CCN1C[C@H](C(=O)N(CCCN(C)C)C(=O)NCC)C[C@@H]2c3cccc4[nH]cc(c34)C[C@H]21 [cabergoline, N-[3-(dimethylamino)propyl]-N-[(ethylamino)carbonyl]-6-(2-propenyl)-8g-ergoline-8-carboxamide]","drop of milk production at the next morning milking (D5), mean",[1],6 L
same,"decrease of blood calcium concentration in comparison with control cows, mean","[2]; IMM 1.34 mg/quarter in all 4 quarters, +6 hours time point only",-0.2 mmol/L
same,blood calcium concentration change at other time points,"[2]; IMM, +3 h, +12 h, +24 h and onward",No decrease
same,AUC,"[3]; read-out: AUCo-inf, mean (sd)",2.49 ng·h/mL
same,Cmax,"[3]; read-out: Cmax, mean (sd)",0.15 ng/mL
same,MRT,"[3]; read-out: MRT, mean (sd)",22.7 h
same,Tmax,"[3]; read-out: Tmax, mean (sd)",3 h
same,time of return of blood calcium to normal,[4],> 24 h
same,Mean ΔITP at +24 h after treatment,dairy cow [5],9.2 cm
same,"decrease of milk production, treated against negative controlled cows",dairy cow [6],around −40%
same,predicted effect on milk production reduction,dairy cow [7],−43%
same,AUC,"[8]; read-out: AUCo-inf, mean (sd)",4.75 ng·h/mL
same,Cmax,"[8]; read-out: Cmax, mean (sd)",0.114 ng/mL
same,MRT,"[8]; read-out: MRT, mean (sd)",36.3 h
same,Tmax,"[8]; read-out: Tmax, mean (sd)",8.4 h
same,ITP of treated cows versus control after dry-off,"dairy cow [9]; IMM 1.34 mg/quarter in all 4 quarters, first 48 hours after treatment, FIG. 2",increased less than control
same,Mean ΔITP at +24 h after treatment,"dairy cow [9]; IMM study, 1.34 mg/quarter in all 4 quarters at D0 dry-off, n=5",8.3 cm
same,"Mean ΔITP before/after milking, before treatment","dairy cow [9]; IMM study, cabergoline group n=5, baseline before treatment",13.1 cm
